Experimental findings from article PMC6804006, “Synthesis, Biological Activities and Docking Studies of Novel 4-(Arylaminomethyl)benzamide Derivatives as Potential Tyrosine Kinase Inhibitors” (Molecules, 2019) are described below.

One series deals with T1, HER-4 (Homo sapiens, UniProt Q15303).
T1 construct: purchased Promega
Put plainly: ADP-Glo kinase inhibitory assay, HER-4. The series is classed as biochemical. As to conditions: for inhibition at 0.01 µM: read-out: % Inhibition at 10 nM, HER-4. The essentials: (§1)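 ADP generation monitored by luciferase luminescence after a 60-min, 23 °C kinase reaction (1% DMSO final). Each concentration tested in duplicate, with activity normalised to the luminescence difference between kinase-free and kinase-containing wells.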
In general terms: ADP-Glo first removes unused ATP, then detects ADP through luciferase.

The next series has as its system HeLa (cervix carcinoma). Put plainly: MTT anti-proliferative assay, HeLa. As to conditions: Homo sapiens, 48 h, 50% growth inhibition. It counts as cell-based. As to the method: (§2) Each in vitro experiment was performed at least in triplicate, and the standard deviation of absorbance was less than 10% of the mean. For the in vitro assays, a stock solution (1% DMSO in the appropriate buffer with the tested compound diluted under sonication) was prepared from which several dilutions were made with the appropriate buffer.
(§3) Human cell lines were obtained from the Institute of Cytology, Russian Academy of Sciences. […] Cellular sensitivities to clofarabine and its lipid derivatives were measured with the MTT assay. Cells were plated in triplicate in 96-well plates (10^5 cells/well for suspended cell cultures and 5 × 10^3 cells/well for monolayer cultures); on the same day (suspended cell cultures) or on the following day (monolayer cultures), compounds were added at the appropriate dilutions. Plates were incubated under standard conditions for 48 h. Thereafter, 10 μL of MTT (Sigma) in phosphate-buffered saline (5 mg/mL) was added. The plates were incubated for an additional 4 h, and 150 μL of dimethyl sulfoxide (DMSO) was added to dissolve the formazan crystals. The optical density was read on a HALO MPR-95 Microplate Reader (Dynamica Scientific Ltd., Australia) at 570 nm. The antiproliferative effects were determined as degrees of inhibition of tumor cells (%).
(In general: Formazan colour is commonly taken as a measure of viable cells.)

Series [1] deals with OKP-GS (carcinoma of the kidney). Put plainly: MTT anti-proliferative assay, OKP-GS. The series is classed as cell-based. The following applies: Homo sapiens, 48 h, 50% growth inhibition. As to the method:
as §2, §3

The next series addresses T2, PDGFRb (Homo sapiens, UniProt P09619).
T2 construct: purchased Promega
The series can be described thus: ADP-Glo kinase inhibitory assay, PDGFRb. It counts as biochemical. As to conditions: read-out: % Inhibition at 10 nM, PDGFRb. In a few lines: as §1

A further series addresses T3, InsR (Homo sapiens, UniProt P06213).
T3 construct: purchased Promega
Put plainly: ADP-Glo kinase inhibitory assay, InsR. It counts as biochemical. As to conditions: for inhibition at 0.01 µM: read-out: % Inhibition at 10 nM, InsR; for selectivity for the gene insulin receptor, in words: 10 nM, panel of eight receptor tyrosine kinases. In a few lines:
as §1

A further series concerns the target T4, PDGFRa (Homo sapiens, UniProt P16234).
T4 construct: purchased Promega
Put plainly: ADP-Glo kinase inhibitory assay, PDGFRa. It counts as biochemical. The following applies: read-out: % Inhibition at 10 nM, PDGFRa. In a few lines:
as §1

Series [2] relates to HL-60 (promyelocytic leukemia). Put plainly: MTT anti-proliferative assay, HL-60. The following applies: 50% growth inhibition. The series is classed as cell-based, human.
The next series addresses T5, KDR (VEGFR2) (Homo sapiens, UniProt P35968).
T5 construct: purchased Promega
Put plainly: ADP-Glo kinase inhibitory assay, KDR. The series is classed as biochemical. The following applies: 10 nM.

For series [3], the system named is MCF-7 (breast adenocarcinoma). The series can be described thus: MTT anti-proliferative assay, MCF-7. It counts as cell-based. As to conditions: Homo sapiens, MCF7, 48 h, 50% growth inhibition. As to the method: as §2, §3
For series [4], the system named is RPMI 1788 (B lymphocyte, human normal cells). The series can be described thus: MTT assay on normal cells RPMI 1788. It counts as cell-based. The following applies: MTT 48 h. The essentials: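 48 h exposure at 37 °C in 5% CO2; MTT 4 h; formazan in DMSO; A570; % inhibition, triplicate wells.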
For a further series, the target named is T6, HER-2 (Homo sapiens, UniProt P04626).
T6 construct: purchased Promega
T6 sequence (P04626 23-1255): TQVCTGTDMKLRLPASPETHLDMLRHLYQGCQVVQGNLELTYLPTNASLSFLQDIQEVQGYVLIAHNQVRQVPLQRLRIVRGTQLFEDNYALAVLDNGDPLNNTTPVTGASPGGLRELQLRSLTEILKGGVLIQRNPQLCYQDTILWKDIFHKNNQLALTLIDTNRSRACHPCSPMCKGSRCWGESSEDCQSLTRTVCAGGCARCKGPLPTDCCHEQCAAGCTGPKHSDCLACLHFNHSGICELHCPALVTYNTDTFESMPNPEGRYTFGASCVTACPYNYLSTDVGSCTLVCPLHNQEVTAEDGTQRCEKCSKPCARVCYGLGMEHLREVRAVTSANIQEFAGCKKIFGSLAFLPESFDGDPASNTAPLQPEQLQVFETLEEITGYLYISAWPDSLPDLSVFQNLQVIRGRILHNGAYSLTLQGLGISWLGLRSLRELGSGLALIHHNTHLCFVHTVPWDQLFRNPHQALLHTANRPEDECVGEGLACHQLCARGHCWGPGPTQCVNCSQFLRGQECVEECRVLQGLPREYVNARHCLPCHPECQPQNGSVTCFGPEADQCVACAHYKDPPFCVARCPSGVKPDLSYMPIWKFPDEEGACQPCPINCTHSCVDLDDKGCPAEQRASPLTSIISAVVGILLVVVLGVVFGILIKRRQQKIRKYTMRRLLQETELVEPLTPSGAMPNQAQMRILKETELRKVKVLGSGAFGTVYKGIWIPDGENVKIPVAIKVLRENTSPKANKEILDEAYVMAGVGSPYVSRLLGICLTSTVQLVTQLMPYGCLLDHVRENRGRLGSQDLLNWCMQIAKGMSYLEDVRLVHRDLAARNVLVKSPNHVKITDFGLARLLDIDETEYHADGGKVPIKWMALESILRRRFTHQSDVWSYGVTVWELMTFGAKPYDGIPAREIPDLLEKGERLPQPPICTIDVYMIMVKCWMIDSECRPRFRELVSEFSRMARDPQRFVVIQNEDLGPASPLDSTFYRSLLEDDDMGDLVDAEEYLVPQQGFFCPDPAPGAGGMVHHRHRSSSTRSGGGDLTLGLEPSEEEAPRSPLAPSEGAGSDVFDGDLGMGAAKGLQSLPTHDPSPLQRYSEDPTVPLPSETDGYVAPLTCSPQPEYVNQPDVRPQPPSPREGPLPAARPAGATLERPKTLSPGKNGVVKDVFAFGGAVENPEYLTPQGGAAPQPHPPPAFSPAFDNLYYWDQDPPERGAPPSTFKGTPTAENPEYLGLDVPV
Put plainly: ADP-Glo kinase inhibitory assay, HER-2. It counts as biochemical. The following applies: read-out: % Inhibition at 10 nM, HER-2. The essentials:
as §1

The test system of series [5] is K-562 (chronic myelogenous leukemia). Put plainly: MTT anti-proliferative assay, K-562. The following applies: Homo sapiens, K562, 48 h, 50% growth inhibition. The series is classed as cell-based.
Another series concerns the target T7, EGFR (Homo sapiens, UniProt P00533).
T7 construct: purchased Promega
Put plainly: ADP-Glo kinase inhibitory assay, EGFR. As to conditions: read-out: % Inhibition at 10 nM, EGFR. The series is classed as biochemical. In a few lines:
as §1

The next series deals with A549 (lung carcinoma). Put plainly: MTT anti-proliferative assay, A-549. It counts as cell-based. As to conditions: Homo sapiens, 48 h, 50% growth inhibition. The protocol: as §2, §3
The target of a further series is T8, IGF1R (Homo sapiens, UniProt P08069).
T8 construct: purchased Promega
The series can be described thus: ADP-Glo kinase inhibitory assay, IGF1R. It counts as biochemical. The following applies: read-out: % Inhibition at 10 nM, IGF1R. In a few lines: as §1

Bounds are passed on as bounds.

One may read the inhibition as the drop in the measured response relative to a control, in per cent. For orientation: IC50 means the concentration at which inhibition is half-maximal. Higher therefore signals weaker potency in that assay. Usually melting point stands for the temperature, or range, at which the solid turns liquid.

T5 sequence (P35968 20-1356): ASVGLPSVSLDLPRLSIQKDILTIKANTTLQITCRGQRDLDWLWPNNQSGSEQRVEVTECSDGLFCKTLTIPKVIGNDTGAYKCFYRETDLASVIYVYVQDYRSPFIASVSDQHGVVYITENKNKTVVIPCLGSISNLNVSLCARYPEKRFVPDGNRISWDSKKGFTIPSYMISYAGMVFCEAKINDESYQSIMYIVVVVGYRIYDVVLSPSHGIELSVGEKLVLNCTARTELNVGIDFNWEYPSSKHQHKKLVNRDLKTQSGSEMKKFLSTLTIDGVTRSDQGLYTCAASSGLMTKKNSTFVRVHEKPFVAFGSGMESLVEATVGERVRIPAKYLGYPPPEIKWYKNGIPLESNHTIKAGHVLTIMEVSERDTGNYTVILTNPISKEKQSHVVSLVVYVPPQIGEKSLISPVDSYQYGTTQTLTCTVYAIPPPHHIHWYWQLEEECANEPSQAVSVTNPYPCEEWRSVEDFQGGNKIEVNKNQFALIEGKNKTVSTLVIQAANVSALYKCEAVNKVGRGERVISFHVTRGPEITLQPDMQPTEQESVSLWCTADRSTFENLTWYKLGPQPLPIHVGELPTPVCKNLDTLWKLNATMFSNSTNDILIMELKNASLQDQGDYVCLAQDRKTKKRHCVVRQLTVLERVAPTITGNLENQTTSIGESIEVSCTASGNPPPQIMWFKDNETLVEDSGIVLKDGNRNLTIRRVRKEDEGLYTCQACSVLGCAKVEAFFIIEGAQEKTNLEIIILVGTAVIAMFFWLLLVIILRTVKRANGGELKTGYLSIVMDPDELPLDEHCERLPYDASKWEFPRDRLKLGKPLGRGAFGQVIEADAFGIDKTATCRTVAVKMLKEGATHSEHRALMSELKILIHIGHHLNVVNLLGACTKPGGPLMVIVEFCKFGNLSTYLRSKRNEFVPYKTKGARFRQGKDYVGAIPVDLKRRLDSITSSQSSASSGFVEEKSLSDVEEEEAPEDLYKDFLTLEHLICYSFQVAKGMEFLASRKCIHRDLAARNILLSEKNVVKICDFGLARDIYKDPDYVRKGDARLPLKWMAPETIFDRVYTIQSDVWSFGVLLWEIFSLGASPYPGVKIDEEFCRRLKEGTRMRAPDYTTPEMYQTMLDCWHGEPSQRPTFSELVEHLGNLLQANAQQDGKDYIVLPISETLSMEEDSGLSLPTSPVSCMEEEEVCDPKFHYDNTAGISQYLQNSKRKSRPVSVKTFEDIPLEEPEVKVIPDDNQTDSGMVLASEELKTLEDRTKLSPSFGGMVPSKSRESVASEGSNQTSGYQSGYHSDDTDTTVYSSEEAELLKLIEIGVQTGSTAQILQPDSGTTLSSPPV
T3 sequence (P06213 28-1382): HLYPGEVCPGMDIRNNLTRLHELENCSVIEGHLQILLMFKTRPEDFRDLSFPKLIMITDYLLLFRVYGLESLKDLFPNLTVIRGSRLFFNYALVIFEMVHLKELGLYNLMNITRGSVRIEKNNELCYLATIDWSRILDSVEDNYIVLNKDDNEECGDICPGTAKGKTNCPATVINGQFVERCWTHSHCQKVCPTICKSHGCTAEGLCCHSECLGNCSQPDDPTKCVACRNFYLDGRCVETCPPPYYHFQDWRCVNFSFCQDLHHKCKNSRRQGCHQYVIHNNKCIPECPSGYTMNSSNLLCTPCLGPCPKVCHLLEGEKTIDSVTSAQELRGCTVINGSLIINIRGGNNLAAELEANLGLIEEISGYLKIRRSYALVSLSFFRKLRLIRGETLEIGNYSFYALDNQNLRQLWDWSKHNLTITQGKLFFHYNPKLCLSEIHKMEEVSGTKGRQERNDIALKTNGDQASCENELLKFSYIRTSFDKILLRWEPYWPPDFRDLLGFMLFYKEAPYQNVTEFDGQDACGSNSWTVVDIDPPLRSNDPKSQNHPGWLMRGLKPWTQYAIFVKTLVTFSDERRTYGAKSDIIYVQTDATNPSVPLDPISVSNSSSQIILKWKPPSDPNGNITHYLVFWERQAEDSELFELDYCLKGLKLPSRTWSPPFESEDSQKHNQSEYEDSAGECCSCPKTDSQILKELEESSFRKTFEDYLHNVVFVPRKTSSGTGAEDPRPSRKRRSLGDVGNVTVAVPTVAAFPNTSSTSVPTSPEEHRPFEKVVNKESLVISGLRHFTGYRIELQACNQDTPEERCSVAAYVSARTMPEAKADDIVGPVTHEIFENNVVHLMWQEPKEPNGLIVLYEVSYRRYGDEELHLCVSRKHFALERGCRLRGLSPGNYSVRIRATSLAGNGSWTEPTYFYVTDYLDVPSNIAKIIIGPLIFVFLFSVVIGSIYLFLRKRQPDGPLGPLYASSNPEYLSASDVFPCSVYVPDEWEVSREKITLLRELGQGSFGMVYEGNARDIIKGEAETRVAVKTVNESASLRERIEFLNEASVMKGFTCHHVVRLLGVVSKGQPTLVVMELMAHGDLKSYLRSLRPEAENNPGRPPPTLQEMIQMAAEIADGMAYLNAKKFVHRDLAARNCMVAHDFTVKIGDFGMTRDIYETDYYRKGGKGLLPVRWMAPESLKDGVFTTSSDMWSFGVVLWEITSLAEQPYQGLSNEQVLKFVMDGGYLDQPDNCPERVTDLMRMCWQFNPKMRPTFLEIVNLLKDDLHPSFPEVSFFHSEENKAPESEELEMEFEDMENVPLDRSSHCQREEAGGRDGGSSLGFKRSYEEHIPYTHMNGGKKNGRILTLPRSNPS
T7 sequence (P00533 25-1210): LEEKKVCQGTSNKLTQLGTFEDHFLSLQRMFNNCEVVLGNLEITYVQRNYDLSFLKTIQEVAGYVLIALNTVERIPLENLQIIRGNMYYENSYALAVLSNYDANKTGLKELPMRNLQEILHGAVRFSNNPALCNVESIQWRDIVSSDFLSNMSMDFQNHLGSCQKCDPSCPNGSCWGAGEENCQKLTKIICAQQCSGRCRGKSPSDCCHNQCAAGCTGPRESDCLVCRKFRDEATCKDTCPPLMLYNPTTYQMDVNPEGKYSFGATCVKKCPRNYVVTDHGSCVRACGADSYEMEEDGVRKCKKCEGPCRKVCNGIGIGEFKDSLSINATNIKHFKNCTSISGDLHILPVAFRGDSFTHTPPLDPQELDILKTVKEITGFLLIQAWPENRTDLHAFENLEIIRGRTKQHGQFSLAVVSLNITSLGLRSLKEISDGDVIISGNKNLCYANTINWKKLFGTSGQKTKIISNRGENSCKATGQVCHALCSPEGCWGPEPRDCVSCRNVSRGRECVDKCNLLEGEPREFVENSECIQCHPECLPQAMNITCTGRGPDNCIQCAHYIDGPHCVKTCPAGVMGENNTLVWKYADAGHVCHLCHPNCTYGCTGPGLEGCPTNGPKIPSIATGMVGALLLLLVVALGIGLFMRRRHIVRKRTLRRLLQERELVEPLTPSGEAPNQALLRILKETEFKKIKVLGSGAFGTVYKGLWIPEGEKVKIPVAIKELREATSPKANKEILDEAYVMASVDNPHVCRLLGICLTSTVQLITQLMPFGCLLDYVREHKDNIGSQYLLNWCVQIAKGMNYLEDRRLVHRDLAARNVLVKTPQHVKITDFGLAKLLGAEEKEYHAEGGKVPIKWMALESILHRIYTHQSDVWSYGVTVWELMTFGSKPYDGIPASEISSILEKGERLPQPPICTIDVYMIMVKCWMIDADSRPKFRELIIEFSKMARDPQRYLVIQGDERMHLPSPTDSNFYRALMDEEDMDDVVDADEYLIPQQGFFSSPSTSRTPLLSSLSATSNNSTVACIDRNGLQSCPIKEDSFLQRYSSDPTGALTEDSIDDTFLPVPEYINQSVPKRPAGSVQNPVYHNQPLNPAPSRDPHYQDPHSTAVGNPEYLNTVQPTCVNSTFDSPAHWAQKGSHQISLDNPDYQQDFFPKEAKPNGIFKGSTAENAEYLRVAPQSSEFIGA

For `Cc1cn(-c2cc(NCc3ccc(C(=O)Nc4cccc(C(F)(F)F)c4)cc3)cc(C(F)(F)F)c2)cn1` [Compound 13, 4-({[3-(4-Methyl-1H-imidazol-1-yl)-5-(trifluoromethyl)phenyl]amino}methyl)-N-[3-(trifluoromethyl)phenyl]benzamide], the melting point was in the range of 129 to 131 °C. The “inhibitory activity in relation to HER-4, in words” value at HER-4 (10 nM, compared with imatinib) is on record as “comparable to imatinib”. For the same compound, the inhibition at 0.01 µM on HER-4 was 54%. The compound further showed an IC50 with HeLa (cervix carcinoma) of 57.5 µM. Besides, the IC50 in [1] was 52 µM. Further, the inhibition at 0.01 µM at PDGFRb came out at 8%. On InsR, the inhibition at 0.01 µM is 0%. The inhibition at 0.01 µM at PDGFRa amounted to 59%. Besides, in [2] (Homo sapiens, HL-60, 48 h), the 50% inhibitory concentration (IC50) worked out at 46 µM. For the same compound, at KDR (VEGFR2), at 0.01 µM the inhibition was 20%. Also, in [3], the IC50 was 69 µM. The compound further had an inhibition at 100 µM in series [4] of 9.36%. The inhibition at 0.01 µM at HER-2 turned out to be 34%. Besides, half-maximal inhibition in series [5] (IC50) was put at 5.6 µM. Besides, the inhibition at 0.01 µM on EGFR worked out at 92%. The same compound registered a half-inhibitory concentration (IC50) in the series with A549 (lung carcinoma) of 55 µM. Further, the inhibition at 0.01 µM on IGF1R is 0%.
For `Cc1cn(-c2cc(NCc3ccc(C(=O)Nc4cc([N+](=O)[O-])ccc4C)cc3)cc(C(F)(F)F)c2)cn1` [Compound 15, 4-({[3-(4-Methyl-1H-imidazol-1-yl)-5-(trifluoromethyl)phenyl]amino}methyl)-N-{[(2-methyl-5-nitrophenyl) benzoate], the melting point fell in the range of 205 to 208 °C. Moreover, the inhibition at 0.01 µM at HER-4 came to 0%. The compound further yielded a concentration for half-maximal inhibition (IC50) in the series on HeLa (cervix carcinoma) of 78.5 µM. The compound also registered an IC50 in [1] greater than 100 µM. Also, the inhibition at 0.01 µM at PDGFRb worked out at 0%. Besides, on InsR, the “selectivity for the gene insulin receptor, in words” value is “high selectivity” and the inhibition at 0.01 µM came out at 43%. In addition, the inhibition at 0.01 µM at PDGFRa was 0%. The same compound showed an IC50 in series [2] (48 h) of 5.8 µM. Moreover, the half-maximal inhibitory concentration (IC50) in series [2] (Homo sapiens, HL-60, 48 h) came to 5.6 µM. The same compound registered an inhibition at 0.01 µM against KDR (VEGFR2) of 0%. In series [3], this compound gave a concentration for half-maximal inhibition (IC50) greater than 100 µM. In series [4], this compound registered an inhibition at 100 µM of 15.9%. The inhibition at 0.01 µM on HER-2 turned out to be 0%. Also, in [5], the IC50 was found to be 31 µM. Moreover, the inhibition at 0.01 µM on EGFR is 0%. The compound further showed an IC50 with A549 (lung carcinoma) of 73 µM. Besides, the inhibition at 0.01 µM at IGF1R was found to be 0%.
Consider `COc1ccc(C(=O)N2CCN(Cc3ccc(C(=O)Nc4cc(-n5cnc(C)c5)cc(C(F)(F)F)c4)cc3)CC2)cc1` [Compound 28i, 4-{[4-(4-Methoxybenzoyl)piperazin-1-yl]methyl}-N-[3-(4-methyl-1H-imidazol-1-yl)-5-(trifluoromethyl)phenyl]benzamide], for which the melting point is 98 to 102 °C. For the same compound, the inhibition at 0.01 µM at HER-4 stood at 0%. Besides, in the series with HeLa (cervix carcinoma), half-maximal inhibition (IC50) required 11.5 µM. The same compound had a half-inhibitory concentration (IC50) in [1] of 78 µM. For the same compound, at PDGFRb, the inhibition at 0.01 µM came to 0%. On InsR, the “selectivity for the gene insulin receptor, in words” value is recorded as “high selectivity” and the inhibition at 0.01 µM turned out to be 52%. In addition, the inhibition at 0.01 µM on PDGFRa is 0%. Further, inhibition in [2] (Homo sapiens, HL-60, 48 h) was half-maximal at 38 µM (IC50). Besides, on KDR (VEGFR2), at 0.01 µM the inhibition was 0%. This compound gave an IC50 in series [3] of 63 µM. Besides, the inhibition at 100 µM in [4] amounted to 6.32%. Besides, the inhibition at 0.01 µM on HER-2 turned out to be 0%. The same compound gave an IC50 in [5] of 30.7 µM. Besides, the inhibition at 0.01 µM on EGFR was 0%. The same compound returned an IC50 in the series on A549 (lung carcinoma) greater than 100 µM. Further, the inhibition at 0.01 µM at IGF1R is 3%.
